Test results taken from the supplement of paper PMC10307832.

Legend:
Assay in all cases: relative viability (nuclei count vs DMSO), 5 days (fraction); higher = more cells survive
[1] = compound: O=c1ncccn1[C@@H]1O[C@H](CO)[C@@H](O)[C@H]1O [Zebularine] + O=C(c1cc(Cc2n[nH]c(=O)c3ccccc23)ccc1F)N1CCN(C(=O)C2CC2)CC1 [Olaparib] (partner 8 µM)
Procedure, shortened: (§1)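 Relative viability was taken as the ratio of nuclei in treated wells to nuclei in vehicle wells. Lung cancer cell lines in 1536-well plates received compounds by pin tool one day after seeding, either one drug alone or a fixed anchor-drug dose plus five library-drug doses (not always all listed) in √10 steps. Nuclei were counted on 4× images after 5 days of treatment, and values are medians of duplicate plates.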

[2] = compound: O=c1ncccn1[C@@H]1O[C@H](CO)[C@@H](O)[C@H]1O [Zebularine] + C[C@@H](Oc1cc(-c2cnn(C3CCNCC3)c2)cnc1N)c1c(Cl)ccc(F)c1Cl [Crizotinib] (partner 1 µM)
Procedure, shortened: as §1

[3] = compound: CC(C)CCN1c2nc(Nc3cc(F)c(O)c(F)c3)ncc2N(C)C(=O)C1C [BI-D1870] + C[C@]1(O)C[C@@H](c2nc(-c3ccc4ccc(-c5ccccc5)nc4c3)c3c(N)nccn32)C1 [Linsitinib] (partner 1 µM)
Procedure, shortened: as §1

[4] = compound: O=c1ncccn1[C@@H]1O[C@H](CO)[C@@H](O)[C@H]1O [Zebularine] + Nc1nc2[nH]cc(CCc3ccc(C(=O)N[C@@H](CCC(=O)O)C(=O)O)cc3)c2c(=O)[nH]1 [Pemetrexed] (partner 0.2 µM)
Procedure, shortened: as §1

Cell Line | relative viability ([1]; first compound 1 µM) | relative viability ([1]; first compound 3.162 µM) | relative viability ([1]; first compound 10 µM) | relative viability ([1]; first compound 31.62 µM) | relative viability ([1]; first compound 100 µM) | relative viability ([2]; first compound 1 µM) | relative viability ([2]; first compound 3.162 µM) | relative viability ([2]; first compound 10 µM) | relative viability ([2]; first compound 31.62 µM) | relative viability ([2]; first compound 100 µM) | relative viability ([3]; first compound 0.04 µM) | relative viability ([3]; first compound 0.1265 µM) | relative viability ([3]; first compound 0.4 µM) | relative viability ([3]; first compound 1.265 µM) | relative viability ([3]; first compound 4 µM) | relative viability ([4]; first compound 1 µM) | relative viability ([4]; first compound 3.162 µM) | relative viability ([4]; first compound 10 µM) | relative viability ([4]; first compound 31.62 µM) | relative viability ([4]; first compound 100 µM)
NCI-H520 | 0.337 | 0.299 | 0.319 | 0.243 | 0.192 | 0.784 | 0.717 | 0.429 | 0.372 | 0.261 | 1 | 0.846 | 0.985 | 0.803 | 0.678 | 0.687 | 0.588 | 0.374 | 0.239 | 0.215
NCI-H647 | 0.506 | 0.291 | 0.171 | 0.15 | 0.165 | 1.18 | 0.981 | 0.254 | 0.142 | 0.228 | 1.14 | 1.2 | 1.26 | 1.22 | 0.871 | 0.18 | 0.183 | 0.149 | 0.115 | 0.115
NCI-H1792 | 0.228 | 0.131 | 0.204 | 0.171 | 0.182 | 1.06 | 0.876 | 0.381 | 0.386 | 0.339 | 0.622 | 0.607 | 0.47 | 0.619 | 0.387 | 1.04 | 0.71 | 0.24 | 0.307 | 0.271
SK-LU-1 | 0.434 | 0.351 | 0.333 | 0.313 | 0.289 | 1.02 | 0.843 | 0.531 | 0.79 | 0.583 | 1.33 | 0.993 | 1.09 | 1.05 | 0.597 | 1.03 | 0.922 | 0.52 | 0.523 | 0.542
NCI-H2009 | 0.624 | 0.648 | 0.461 | 0.438 | 0.263 | 1.07 | 0.962 | 0.817 | 0.681 | 0.311 | 1.29 | 1.13 | 1.23 | 1.13 | 0.881 | 1.12 | 0.962 | 0.767 | 0.675 | 0.211
LOU-NH91 | 0.906 | 0.891 | 0.704 | 0.775 | 0.469 | 0.713 | 0.732 | 0.693 | 0.738 | 0.647 | 0.98 | 0.908 | 0.996 | 0.986 | 0.769 | 0.368 | 0.415 | 0.419 | 0.355 | 0.398
NCI-H2405 | 0.905 | 0.782 | 0.533 | 0.564 | 0.511 | 0.845 | 0.825 | 0.621 | 0.846 | 0.56 | 1.07 | 0.839 | 0.901 | 1.06 | 0.909 | 1.14 | 0.913 | 0.795 | 1.09 | 0.681
LCLC-97TM1 | 0.404 | 0.289 | 0.138 | 0.104 | 0.119 | 0.355 | 0.291 | 0.145 | 0.121 | 0.12 | 0.238 | 0.158 | 0.19 | 0.244 | 0.193 | 0.167 | 0.172 | 0.13 | 0.146 | 0.0657
